Experimental findings from patent US11395847B2, “Acylated GLP-1/GLP-2 dual agonists” (Zealand Pharma A/S, priority 2016, dated 2022) are described below.

The target of series [1] is T1, human GLP-2 receptor (Homo sapiens, UniProt O95838, D470N).
T1 construct: expressed in transfected cells
T1 sequence (O95838 1-553 D470N): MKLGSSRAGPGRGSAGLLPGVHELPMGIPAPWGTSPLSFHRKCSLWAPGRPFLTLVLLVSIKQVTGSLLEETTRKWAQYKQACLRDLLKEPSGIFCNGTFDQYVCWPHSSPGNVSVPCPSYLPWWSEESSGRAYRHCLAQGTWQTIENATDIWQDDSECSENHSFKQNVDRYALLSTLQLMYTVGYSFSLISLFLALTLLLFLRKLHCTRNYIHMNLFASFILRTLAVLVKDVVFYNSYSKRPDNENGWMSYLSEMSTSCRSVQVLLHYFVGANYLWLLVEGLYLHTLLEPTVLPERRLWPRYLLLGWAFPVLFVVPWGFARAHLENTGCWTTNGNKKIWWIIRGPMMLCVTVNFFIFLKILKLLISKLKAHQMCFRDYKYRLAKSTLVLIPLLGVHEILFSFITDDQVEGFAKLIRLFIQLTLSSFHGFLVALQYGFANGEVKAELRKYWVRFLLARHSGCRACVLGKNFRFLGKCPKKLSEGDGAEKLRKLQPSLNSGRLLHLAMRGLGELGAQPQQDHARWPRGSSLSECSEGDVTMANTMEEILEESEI
Kind of series: GLP-2 receptor potency assay (cAMP ALPHASCREEN, HEK293 cells stably expressing GLP-2 R). The series is classed as cell-based. The source says: One useful in vitro assay for measuring GLP-1 and GLP-2 receptor activity is quantitation of cAMP, i.e. 3′-5′-cyclic adenosine monophosphate, which is a second messenger essential in many biological processes, and one of the most ubiquitous mechanisms for regulating cellular functions.
For subcloning into a mammalian expression vector, primers for subcloning were obtained from DNA-Technology, Risskov, Denmark. The 5′ and 3′ primers used for the PCR reaction include terminal restriction sites for cloning and the context of the 5′ primer is modified to a Kozak consensus without changing the sequence of the product encoded by the ORF. […] The generated PCR product was purified using GFX PCR and Gel band purification kit, digested with restriction enzymes and cloned into the mammalian expression vector using Rapid DNA Ligation Kit. Ligation reaction was transformed to XL10 Gold Ultracompetent cells and colonies were picked for DNA production using ENDOFREE® Plasmid maxi kit. Subsequent sequence analysis was conducted by MWG Eurofins, Germany.
HEK293 cells were transfected using the LIPOFECTAMINE® PLUS transfection method. The day before transfection, HEK293 cells were seeded in two T75 flasks at a density of 2×10^6 cells/T75 flask in cell culturing medium without antibiotics. On the day of transfection, cells were washed with 1× DPBS and medium was replaced with OPTI-MEM© to a volume of 5 mL/T75 flask before addition of LIPOFECTAMINE®-plasmid complexes were added gently and drop wise to the cells in T75 flasks and replaced with growth medium after 3 hours and again to growth medium supplemented with 500 μg/mL G418 after 24 hours. Following 4 weeks in G418 selection, clones were picked and tested in a functional GLP-2 receptor potency assay as described below.
The cAMP ALPHASCREEN® assay from Perkin Elmer was used to quantitate the cAMP response to activation of the GLP1 and GLP2 receptor, respectively. […] Data from test compounds eliciting an increase in the intracellular level of cAMP were normalized relative to the positive and negative control (vehicle) to calculate the EC50 and maximal response from the concentration response curve.
For orientation: In Alpha technology, singlet oxygen from a donor bead excites a nearby acceptor bead.

Series [2] can be described thus: Chemical stability (RP-HPLC normalized purity after incubation at 40° C.). It counts as physicochemical. To be noted: pH 7, 40° C., 14-day incubation, 0.2 mg/ml, normalized purity (area-%). The gist of the method: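 Peptide at 0.2 mg/ml final in water adjusted to pH 6, 7, 7.5 or 9, incubated at 40° C for 14 days. Purity measured as main-peak area-% by C18 RP-HPLC (acetonitrile/TFA/water gradient, UV 220 nm) and normalized to T=0 set at 100 for each pH.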

A short description of series [3]: Solubility assessment (turbidity absorbance at 325 nm). The series is classed as physicochemical. How it is done:
A stock solution of the test peptide (2 mg/ml; determined from the weighed amount of peptide) in demineralized water adjusted to pH 2.5 with HCl was prepared, and aliquots were diluted 1:1 in 100 mM acetate buffer (pH 4.0 and pH 5.0), 100 mM histidine buffer (pH 6.0 and pH 7.0) and 100 mM phosphate buffer (pH 6.0, pH 7.0 and pH 7.5), respectively, and loaded in a standard flat-bottom, non-sterile 96-well UV Microplate. The absorbance of samples (single samples, n=1) at 280 and 325 nm was measured in an absorbance-based plate reader, which was preheated to ambient temperature (typically 25° C.).

[4] abbreviates: cAMP response, HEK293 cells expressing human GLP-2 R, read-out: EC50 GLP-2.

Read-outs that look alike come from different tables or passages of the source. Where a SMILES comes first, the peptide text is derived from it.

Usually EC50 stands for the concentration that produces a half-maximal response. Turning to `CC[C@H](C)[C@H](NC(=O)[C@H](Cc1ccccc1)NC(=O)[C@H](CC(=O)O)NC(=O)[C@H](CCCNC(=N)N)NC(=O)[C@H](C)NC(=O)[C@H](C)NC(=O)[C@H](CCC(=O)O)NC(=O)[C@H](CCCCNC(=O)CC[C@H](NC(=O)CCCCCCCCCCCCCCCCC(=O)O)C(=O)O)NC(=O)[C@H](CC(=O)O)NC(=O)[C@H](CC(C)C)NC(=O)[C@@H](NC(=O)[C@@H](NC(=O)[C@H](C)NC(=O)[C@H](CC(C)C)NC(=O)[C@H](CCC(=O)O)NC(=O)[C@H](CO)NC(=O)[C@H](CO)NC(=O)[C@H](Cc1ccccc1)NC(=O)[C@@H](NC(=O)CNC(=O)[C@H](CCC(=O)O)NC(=O)C(C)(C)NC(=O)[C@@H](N)Cc1c[nH]cn1)[C@@H](C)O)[C@@H](C)O)[C@@H](C)CC)C(=O)N[C@@H](C)C(=O)N[C@@H](Cc1c[nH]c2ccccc12)C(=O)N[C@@H](CC(C)C)C(=O)N[C@H](C(=O)N[C@@H](CCC(=O)O)C(=O)N[C@@H](Cc1c[nH]cn1)C(=O)N[C@@H](CCCCN)C(=O)N[C@H](C(=O)N[C@H](C(=O)N[C@@H](CC(=O)O)C(=O)O)[C@@H](C)O)[C@@H](C)CC)[C@@H](C)CC` [Compound 1] (HELM PEPTIDE1{H.[Aib].E.G.T.F.S.S.E.L.A.T.I.L.D.K.E.A.A.R.D.F.I.A.W.L.I.E.H.K.I.T.D}|PEPTIDE2{[O=C(O)CCCCCCCCCCCCCCCCC(=O)[*:2]].[gGlu]}$PEPTIDE1,PEPTIDE2,16:R3-2:R2$$$V2.0), in series [1] (setting [4]), the EC50 worked out at 0.35 nM.

Take `CC[C@H](C)[C@H](NC(=O)[C@H](Cc1ccccc1)NC(=O)[C@H](CC(=O)O)NC(=O)[C@H](CCCNC(=N)N)NC(=O)[C@H](C)NC(=O)[C@H](C)NC(=O)[C@H](CCC(=O)O)NC(=O)[C@H](CCCCNC(=O)CC[C@H](NC(=O)CCCCCCCCCCCCCCCCC(=O)O)C(=O)O)NC(=O)[C@H](CC(=O)O)NC(=O)[C@H](CC(C)C)NC(=O)[C@@H](NC(=O)[C@@H](NC(=O)[C@H](C)NC(=O)[C@H](CC(C)C)NC(=O)[C@H](CCC(=O)O)NC(=O)[C@H](CO)NC(=O)[C@@H](NC(=O)[C@H](Cc1ccccc1)NC(=O)[C@@H](NC(=O)CNC(=O)[C@H](CCC(=O)O)NC(=O)C(C)(C)NC(=O)[C@@H](N)Cc1c[nH]cn1)[C@@H](C)O)[C@@H](C)O)[C@@H](C)O)[C@@H](C)CC)C(=O)N[C@@H](C)C(=O)N[C@@H](Cc1c[nH]c2ccccc12)C(=O)N[C@@H](CC(C)C)C(=O)N[C@H](C(=O)N[C@@H](CCC(=O)O)C(=O)N[C@@H](Cc1c[nH]cn1)C(=O)N[C@@H](CCCCN)C(=O)N[C@H](C(=O)N[C@H](C(=O)N[C@@H](CC(=O)O)C(=O)O)[C@@H](C)O)[C@@H](C)CC)[C@@H](C)CC` [Compound 3] (HELM PEPTIDE1{H.[Aib].E.G.T.F.T.S.E.L.A.T.I.L.D.K.E.A.A.R.D.F.I.A.W.L.I.E.H.K.I.T.D}|PEPTIDE2{[O=C(O)CCCCCCCCCCCCCCCCC(=O)[*:2]].[gGlu]}$PEPTIDE1,PEPTIDE2,16:R3-2:R2$$$V2.0): in series [1] (setting [4]), the EC50 amounted to 0.33 nM.

In series [1], `CC[C@H](C)[C@H](NC(=O)[C@H](Cc1ccccc1)NC(=O)[C@H](CC(=O)O)NC(=O)[C@H](CCCNC(=N)N)NC(=O)[C@H](C)NC(=O)[C@H](C)NC(=O)[C@H](CCCCN)NC(=O)[C@H](CCCCNC(=O)CC[C@H](NC(=O)CCCCCCCCCCCCCCCCC(=O)O)C(=O)O)NC(=O)[C@H](CC(=O)O)NC(=O)[C@H](CC(C)C)NC(=O)[C@@H](NC(=O)[C@@H](NC(=O)[C@H](C)NC(=O)[C@H](CC(C)C)NC(=O)[C@H](CCC(=O)O)NC(=O)[C@H](CO)NC(=O)[C@H](CO)NC(=O)[C@H](Cc1ccccc1)NC(=O)[C@@H](NC(=O)CNC(=O)[C@H](CCC(=O)O)NC(=O)C(C)(C)NC(=O)[C@@H](N)Cc1c[nH]cn1)[C@@H](C)O)[C@@H](C)O)[C@@H](C)CC)C(=O)N[C@@H](C)C(=O)N[C@@H](Cc1c[nH]c2ccccc12)C(=O)N[C@@H](CC(C)C)C(=O)N[C@H](C(=O)N[C@@H](CCC(=O)O)C(=O)N[C@@H](Cc1c[nH]cn1)C(=O)N[C@@H](CCCCN)C(=O)N[C@H](C(=O)N[C@H](C(=O)N[C@@H](CC(=O)O)C(=O)O)[C@@H](C)O)[C@@H](C)CC)[C@@H](C)CC` [Compound 4] (HELM PEPTIDE1{H.[Aib].E.G.T.F.S.S.E.L.A.T.I.L.D.K.K.A.A.R.D.F.I.A.W.L.I.E.H.K.I.T.D}|PEPTIDE2{[O=C(O)CCCCCCCCCCCCCCCCC(=O)[*:2]].[gGlu]}$PEPTIDE1,PEPTIDE2,16:R3-2:R2$$$V2.0) gave an EC50 of 0.087 nM.

The solubility is how much of the substance goes into solution per volume. Regarding `CC[C@H](C)[C@H](NC(=O)[C@H](Cc1ccccc1)NC(=O)[C@H](CC(=O)O)NC(=O)[C@H](CCCNC(=N)N)NC(=O)[C@H](C)NC(=O)[C@H](C)NC(=O)[C@H](CCC(N)=O)NC(=O)[C@H](CCCCNC(=O)CC[C@H](NC(=O)CCCCCCCCCCCCCCCCC(=O)O)C(=O)O)NC(=O)[C@H](CC(=O)O)NC(=O)[C@H](CC(C)C)NC(=O)[C@@H](NC(=O)[C@@H](NC(=O)[C@H](C)NC(=O)[C@H](CC(C)C)NC(=O)[C@H](CCC(=O)O)NC(=O)[C@H](CO)NC(=O)[C@@H](NC(=O)[C@H](Cc1ccccc1)NC(=O)[C@H](CO)NC(=O)CNC(=O)[C@H](CCC(=O)O)NC(=O)C(C)(C)NC(=O)[C@@H](N)Cc1c[nH]cn1)[C@@H](C)O)[C@@H](C)O)[C@@H](C)CC)C(=O)N[C@@H](C)C(=O)N[C@@H](Cc1c[nH]c2ccccc12)C(=O)N[C@@H](CC(C)C)C(=O)N[C@H](C(=O)N[C@@H](CC(C)C)C(=O)N[C@@H](Cc1c[nH]cn1)C(=O)N[C@@H](CCCCN)C(=O)N[C@H](C(=O)N[C@H](C(=O)N[C@@H](CC(=O)O)C(=O)O)[C@@H](C)O)[C@@H](C)CC)[C@@H](C)CC` [Compound 28] (HELM PEPTIDE1{H.[Aib].E.G.S.F.T.S.E.L.A.T.I.L.D.K.Q.A.A.R.D.F.I.A.W.L.I.L.H.K.I.T.D}|PEPTIDE2{[O=C(O)CCCCCCCCCCCCCCCCC(=O)[*:2]].[gGlu]}$PEPTIDE1,PEPTIDE2,16:R3-2:R2$$$V2.0), in series [2], the “pH 7 normalized stability” value is given as “A (>90% normalised stability)”. Moreover, the solubility in series [3] (100 mM acetate buffer pH 4.0, ambient temperature, read-out: Solubility Acetate buffer pH 4) is less than 1000 µg/mL; in series [3] (100 mM acetate buffer pH 5.0, ambient temperature, read-out: Solubility Acetate buffer pH 5) it was less than 1000 µg/mL; in series [3] (100 mM histidine buffer pH 6.0, ambient temperature, read-out: Solubility Histidine buffer pH 6) it was not below 1000 µg/mL; in series [3] (100 mM histidine buffer pH 7.0, ambient temperature, read-out: Solubility Histidine buffer pH 7), not below 1000 µg/mL; in series [3] (100 mM phosphate buffer pH 6.0, ambient temperature, read-out: Solubility Phosphate buffer pH 6) it was not below 1000 µg/mL; in series [3] (100 mM phosphate buffer pH 7.0, ambient temperature, read-out: Solubility Phosphate buffer pH 7) it was not below 1000 µg/mL. The solubility in series [3] (100 mM phosphate buffer pH 7.5, ambient temperature, read-out: Solubility Phosphate buffer pH 7.5) is not below 1000 µg/mL.
